Patent publication US6358885B1, “Substituted phenylheterocyclic herbicides” (Mississippi State University, priority 1992, dated 2002)

Tests used:
chickweed = test: Test B preemergence/postemergence greenhouse plant response rating 0 to 10; format: in vivo, Stellaria media; conditions: for Plant response rating, Chickweed: 0 to 10 scale
How it was run: (§1)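 Postemergence treatment of plants two to eighteen cm tall ran alongside preemergence treatment of planted seed, each using compound in a non-phytotoxic solvent.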

corn [1] = test: as above; format: in vivo, Zea mays; conditions: for Plant response rating, Corn: 0 to 10 scale
How it was run: as §1

morningglory [2] = test: as above; format: in vivo, Ipomoea hederacea; conditions: for Plant response rating, Morningglory: 0 to 10 scale; for Plant response rating (0 to 10 scale), Morningglory: Rate 100 g/ha
How it was run: as §1

soybean = test: as above; format: in vivo, Glycine max; conditions: for Plant response rating, Soybean: 0 to 10 scale; for Plant response rating (0 to 10 scale), Soybean: Rate 100 g/ha
How it was run: as §1

sugar beet = test: as above; format: in vivo, Beta vulgaris; conditions: for Plant response rating, Sugar beet: 0 to 10 scale; for Plant response rating (0 to 10 scale), Sugar beet: Rate 100 g/ha
How it was run: as §1

velvetleaf [3] = test: as above; format: in vivo, Abutilon theophrasti; conditions: for Plant response rating, Velvetleaf: 0 to 10 scale
How it was run: as §1

corn [4] = test: Test C preemergence/postemergence greenhouse plant response rating 0 to 100; format: in vivo, Zea mays; conditions: POSTEMERGENCE; for Plant response rating, Corn: 0 to 100 scale
Source text: (§2) The compounds evaluated in this test were formulated in a non-phytoxic solvent and applied to the soil surface before plant seedlings emerged (preemergence application), to water that covered the soil surface (flood application), and to plants that were in the one-to-four leaf stage (postemergence application). A sandy loam soil was used for the preemergence and postemergence tests, while a silt loam soil was used in the flood test. Water depth was approximately 2.5 cm for the flood test and was maintained at this level for the duration of the test. Plant species in the preemergence and postemergence tests consisted of barley (Hordeum vulgare), bedstraw (Galium aparine), blackgrass (Alopecurus myosuroides), chickweed (Stellaria media), corn (Zea mays), cotton (Gossypium hirsutum), crabgrass (Digitaria sanguinalis), downy brome (Bromus tectorum), giant foxtail (Setaria faberii), lambsquarters (Chenopodium album), morningglory (Ipomoea hederacea), pigweed ([…]), rape (Brassica napus), ryegrass (Lolium multiflorum), sorghum (Sorghum bicolor), soybean (Glycine max), speedwell (Veronica persica), sugar beet (Beta vulgaris), velvetleaf (Abutilon theophrasti), wheat (Triticum aestivum), wild buckwheat (Polygonum convolvulus), and wild oat (Avena fatua). All plant species were planted one day before application of the compound for the preemergence portion-of this test. Plantings of these species were adjusted to produce plants of appropriate size for the post-emergence portion of the test. […] All plant species were grown using normal greenhouse practices. Visual evaluations of injury expressed on treated plants, when compared to untreated controls, were recorded approximately fourteen to twenty one days after application of the test compound. […] A dash (-) response means no test result.

crabgrass = test: as above; format: in vivo, Digitaria sanguinalis; conditions: POSTEMERGENCE; for Plant response rating, Crabgrass: 0 to 100 scale
Source text: as §2

lambsquarters = test: as above; format: in vivo, Chenopodium album; conditions: POSTEMERGENCE; for Plant response rating Lambsquarters: 0 to 100 scale
Source text: as §2

morningglory [5] = test: as above; format: in vivo, Ipomoea hederacea; conditions: POSTEMERGENCE; for Plant response rating, Morningglory: 0 to 100 scale
Source text: as §2

velvetleaf [6] = test: as above; format: in vivo, Abutilon theophrasti; conditions: POSTEMERGENCE; for Plant response rating, Velvetleaf: 0 to 100 scale
Source text: as §2

wheat = test: as above; format: in vivo, Triticum aestivum; conditions: POSTEMERGENCE; for Plant response rating, Wheat: 0 to 100 scale
Source text: as §2

## Clc1ccc(-c2nc3n(c2Br)CCCC3)c(Cl)c1 [Compound 2]
chickweed; POSTEMERGENCE, Rate 50 g/ha
  Plant response rating (0 to 10 scale), Chickweed: 1
chickweed; POSTEMERGENCE, Rate 100 g/ha
  Plant response rating (0 to 10 scale), Chickweed: 2
chickweed; POSTEMERGENCE, Rate 200 g/ha
  Plant response rating, Chickweed: 2
chickweed; POSTEMERGENCE, Rate 400 g/ha
  Plant response rating, Chickweed: 2
chickweed; PREEMERGENCE, Rate 50 g/ha
  Plant response rating, Chickweed: 0
chickweed; PREEMERGENCE, Rate 100 g/ha
  Plant response rating (0 to 10 scale), Chickweed: 0
chickweed; PREEMERGENCE, Rate 400 g/ha
  Plant response rating, Chickweed: 0
chickweed; Rate 200 g/ha, PREEMERGENCE
  Plant response rating, Chickweed: 0
Corn [1]; POSTEMERGENCE, Rate 50 g/ha
  Plant response rating (0 to 10 scale), Corn: 3
Corn [1]; POSTEMERGENCE, Rate 100 g/ha
  Plant response rating (0 to 10 scale), Corn: 3
Corn [1]; POSTEMERGENCE, Rate 200 g/ha
  Plant response rating, Corn: 4
Corn [1]; POSTEMERGENCE, Rate 400 g/ha
  Plant response rating, Corn: 4
Corn [1]; PREEMERGENCE, Rate 50 g/ha
  Plant response rating, Corn: 0
Corn [1]; PREEMERGENCE, Rate 100 g/ha
  Plant response rating (0 to 10 scale), Corn: 0
Corn [1]; PREEMERGENCE, Rate 400 g/ha
  Plant response rating, Corn: 0
Corn [1]; Rate 200 g/ha, PREEMERGENCE
  Plant response rating, Corn: 0
Morningglory [2]; POSTEMERGENCE, Rate 50 g/ha
  Plant response rating, Morningglory: 9
Morningglory [2]; POSTEMERGENCE
  Plant response rating (0 to 10 scale), Morningglory: 9
Morningglory [2]; POSTEMERGENCE, Rate 200 g/ha
  Plant response rating, Morningglory: 9
Morningglory [2]; POSTEMERGENCE, Rate 400 g/ha
  Plant response rating, Morningglory: 9
Morningglory [2]; PREEMERGENCE, Rate 50 g/ha
  Plant response rating, Morningglory: 0
Morningglory [2]; PREEMERGENCE
  Plant response rating (0 to 10 scale), Morningglory: 0
Morningglory [2]; PREEMERGENCE, Rate 400 g/ha
  Plant response rating, Morningglory: 2
Morningglory [2]; Rate 200 g/ha, PREEMERGENCE
  Plant response rating, Morningglory: 0
soybean; POSTEMERGENCE, Rate 50 g/ha
  Plant response rating, Soybean: 6
soybean; POSTEMERGENCE
  Plant response rating (0 to 10 scale), Soybean: 6
soybean; POSTEMERGENCE, Rate 200 g/ha
  Plant response rating, Soybean: 6
soybean; POSTEMERGENCE, Rate 400 g/ha
  Plant response rating, Soybean: 7
soybean; PREEMERGENCE, Rate 50 g/ha
  Plant response rating, Soybean: 0
soybean; PREEMERGENCE
  Plant response rating (0 to 10 scale), Soybean: 0
soybean; PREEMERGENCE, Rate 400 g/ha
  Plant response rating, Soybean: 0
soybean; Rate 200 g/ha, PREEMERGENCE
  Plant response rating, Soybean: 0
Sugar beet; POSTEMERGENCE, Rate 50 g/ha
  Plant response rating, Sugar beet: 9
Sugar beet; POSTEMERGENCE
  Plant response rating (0 to 10 scale), Sugar beet: 9
Sugar beet; POSTEMERGENCE, Rate 200 g/ha
  Plant response rating, Sugar beet: 10
Sugar beet; POSTEMERGENCE, Rate 400 g/ha
  Plant response rating, Sugar beet: 10
Sugar beet; PREEMERGENCE, Rate 50 g/ha
  Plant response rating, Sugar beet: 0
Sugar beet; PREEMERGENCE
  Plant response rating (0 to 10 scale), Sugar beet: 0
Sugar beet; Rate 200 g/ha, PREEMERGENCE
  Plant response rating, Sugar beet: 0
Velvetleaf [3]; POSTEMERGENCE, Rate 50 g/ha
  Plant response rating, Velvetleaf: 9
Velvetleaf [3]; POSTEMERGENCE, Rate 100 g/ha
  Plant response rating (0 to 10 scale), Velvetleaf: 8
Velvetleaf [3]; POSTEMERGENCE, Rate 200 g/ha
  Plant response rating, Velvetleaf: 8
Velvetleaf [3]; POSTEMERGENCE, Rate 400 g/ha
  Plant response rating, Velvetleaf: 9
Velvetleaf [3]; PREEMERGENCE, Rate 50 g/ha
  Plant response rating, Velvetleaf: 0
Velvetleaf [3]; PREEMERGENCE, Rate 400 g/ha
  Plant response rating, Velvetleaf: 4
Velvetleaf [3]; Rate 200 g/ha, PREEMERGENCE
  Plant response rating, Velvetleaf: 0

## Clc1ccc(-c2nc3n(c2Cl)CCC=C3)c(Cl)c1 [Compound 1]
chickweed; POSTEMERGENCE, Rate 50 g/ha
  Plant response rating (0 to 10 scale), Chickweed: 0
chickweed; POSTEMERGENCE, Rate 200 g/ha
  Plant response rating, Chickweed: 2
chickweed; PREEMERGENCE, Rate 50 g/ha
  Plant response rating, Chickweed: 0
chickweed; Rate 200 g/ha, PREEMERGENCE
  Plant response rating, Chickweed: 0
Corn [1]; POSTEMERGENCE, Rate 50 g/ha
  Plant response rating (0 to 10 scale), Corn: 2
Corn [1]; POSTEMERGENCE, Rate 200 g/ha
  Plant response rating, Corn: 2
Corn [1]; PREEMERGENCE, Rate 50 g/ha
  Plant response rating, Corn: 0
Corn [1]; Rate 200 g/ha, PREEMERGENCE
  Plant response rating, Corn: 0
Morningglory [2]; POSTEMERGENCE, Rate 50 g/ha
  Plant response rating, Morningglory: 6
Morningglory [2]; POSTEMERGENCE, Rate 200 g/ha
  Plant response rating, Morningglory: 7
Morningglory [2]; PREEMERGENCE, Rate 50 g/ha
  Plant response rating, Morningglory: 0
Morningglory [2]; Rate 200 g/ha, PREEMERGENCE
  Plant response rating, Morningglory: 0
soybean; POSTEMERGENCE, Rate 50 g/ha
  Plant response rating, Soybean: 4
soybean; POSTEMERGENCE, Rate 200 g/ha
  Plant response rating, Soybean: 4
soybean; PREEMERGENCE, Rate 50 g/ha
  Plant response rating, Soybean: 0
soybean; Rate 200 g/ha, PREEMERGENCE
  Plant response rating, Soybean: 0
Sugar beet; POSTEMERGENCE, Rate 50 g/ha
  Plant response rating, Sugar beet: 8
Sugar beet; POSTEMERGENCE, Rate 200 g/ha
  Plant response rating, Sugar beet: 10
Sugar beet; PREEMERGENCE, Rate 50 g/ha
  Plant response rating, Sugar beet: 0
Sugar beet; Rate 200 g/ha, PREEMERGENCE
  Plant response rating, Sugar beet: 0
Velvetleaf [3]; POSTEMERGENCE, Rate 50 g/ha
  Plant response rating, Velvetleaf: 3
Velvetleaf [3]; POSTEMERGENCE, Rate 200 g/ha
  Plant response rating, Velvetleaf: 8
Velvetleaf [3]; PREEMERGENCE, Rate 50 g/ha
  Plant response rating, Velvetleaf: 0
Velvetleaf [3]; Rate 200 g/ha, PREEMERGENCE
  Plant response rating, Velvetleaf: 0

## C#CC(C)Oc1cc(-c2nn3c(c2Cl)CCCC3)c(F)cc1Cl (stereo not drawn) [Compound 36]
Corn [1]; POSTEMERGENCE, Rate 50 g/ha
  Plant response rating, Corn: 5
Corn [1]; POSTEMERGENCE, Rate 200 g/ha
  Plant response rating, Corn: 6
Corn [1]; PREEMERGENCE, Rate 50 g/ha
  Plant response rating, Corn: 0
Corn [1]; Rate 200 g/ha, PREEMERGENCE
  Plant response rating, Corn: 4
Morningglory [2]; POSTEMERGENCE, Rate 50 g/ha
  Plant response rating, Morningglory: 8
Morningglory [2]; PREEMERGENCE, Rate 50 g/ha
  Plant response rating, Morningglory: 0
Morningglory [2]; Rate 200 g/ha, POSTEMERGENCE
  Plant response rating, Morningglory: 10
Morningglory [2]; Rate 200 g/ha, PREEMERGENCE
  Plant response rating, Morningglory: 2
soybean; POSTEMERGENCE, Rate 50 g/ha
  Plant response rating, Soybean: 9
soybean; PREEMERGENCE, Rate 50 g/ha
  Plant response rating, Soybean: 0
soybean; Rate 200 g/ha, POSTEMERGENCE
  Plant response rating, Soybean: 9
soybean; Rate 200 g/ha, PREEMERGENCE
  Plant response rating, Soybean: 2
Sugar beet; POSTEMERGENCE, Rate 50 g/ha
  Plant response rating, Sugar beet: 10
Sugar beet; PREEMERGENCE, Rate 50 g/ha
  Plant response rating, Sugar beet: 9
Sugar beet; Rate 200 g/ha, POSTEMERGENCE
  Plant response rating, Sugar beet: 10
Sugar beet; Rate 200 g/ha, PREEMERGENCE
  Plant response rating, Sugar beet: 9
Velvetleaf [3]; POSTEMERGENCE, Rate 50 g/ha
  Plant response rating, Velvetleaf: 10
Velvetleaf [3]; PREEMERGENCE, Rate 50 g/ha
  Plant response rating, Velvetleaf: 8
Velvetleaf [3]; Rate 200 g/ha, POSTEMERGENCE
  Plant response rating, Velvetleaf: 10
Velvetleaf [3]; Rate 200 g/ha, PREEMERGENCE
  Plant response rating, Velvetleaf: 10
Corn [4]; 62 g/ha
  Plant response rating, Corn: 50
Corn [4]; 125 g/ha
  Plant response rating, Corn: 60
Corn [4]; Rate 16 g/ha
  Plant response rating (0 to 100), Corn: 30
Corn [4]; Rate 31 g/ha
  Plant response rating (0 to 100), Corn: 40
crabgrass; 62 g/ha
  Plant response rating, Crabgrass: 50
crabgrass; 125 g/ha
  Plant response rating, Crabgrass: 60
crabgrass; Rate 16 g/ha
  Plant response rating (0 to 100), Crabgrass: 20
crabgrass; Rate 31 g/ha
  Plant response rating (0 to 100), Crabgrass: 30
lambsquarters; 62 g/ha
  Plant response rating Lambsquarters: 100
lambsquarters; 125 g/ha
  Plant response rating Lambsquarters: 100
lambsquarters; Rate 16 g/ha
  Plant response rating (0 to 100), Lambsquarters: 90
lambsquarters; Rate 31 g/ha
  Plant response rating (0 to 100), Lambsquarters: 95
Morningglory [5]; 62 g/ha
  Plant response rating, Morningglory: 100
Morningglory [5]; 125 g/ha
  Plant response rating, Morningglory: 100
Morningglory [5]; Rate 16 g/ha
  Plant response rating (0 to 100), Morningglory: 80
Morningglory [5]; Rate 31 g/ha
  Plant response rating (0 to 100), Morningglory: 80
Velvetleaf [6]; 62 g/ha
  Plant response rating, Velvetleaf: 100
Velvetleaf [6]; 125 g/ha
  Plant response rating, Velvetleaf: 100
Velvetleaf [6]; Rate 16 g/ha
  Plant response rating (0 to 100), Velvetleaf: 100
Velvetleaf [6]; Rate 31 g/ha
  Plant response rating (0 to 100), Velvetleaf: 100
wheat; 62 g/ha
  Plant response rating, Wheat: 50
wheat; 125 g/ha
  Plant response rating, Wheat: 50
wheat; Rate 16 g/ha
  Plant response rating (0 to 100), Wheat: 20
wheat; Rate 31 g/ha
  Plant response rating (0 to 100), Wheat: 30
